Assay results from ChEMBL document CHEMBL1133999, “3-Deoxy-3-substituted-D-myo-inositol imidazolyl ether lipid phosphates and carbonate as inhibitors of the phosphatidylinositol 3-kinase pathway and cancer cell growth” (Bioorg Med Chem Lett, 2001).

Experiments:
[1] = Partition coefficient (logP); assay type: physicochemical; conditions: octanol/water
[2] = target: Serine/threonine-protein kinase AKT (Homo sapiens, UniProt P31751+Q9Y243+P31749); experiment: Inhibition of Akt (proto-oncogenic serine/threonine) kinase; assay type: protein assay
HT-29 = experiment: Inhibition of human colon carcinoma (HT-29) cell proliferation; assay type: functional, cell-based
[3] = target: PI3-kinase p110-alpha/p85-alpha (Homo sapiens, UniProt P42336); experiment: Inhibition of […]/p85 PI3-kinase (phosphatidylinositol 3-kinase); assay type: protein-complex assay
Chain of PI3-kinase p110-alpha/p85-alpha (P27986 whole entry): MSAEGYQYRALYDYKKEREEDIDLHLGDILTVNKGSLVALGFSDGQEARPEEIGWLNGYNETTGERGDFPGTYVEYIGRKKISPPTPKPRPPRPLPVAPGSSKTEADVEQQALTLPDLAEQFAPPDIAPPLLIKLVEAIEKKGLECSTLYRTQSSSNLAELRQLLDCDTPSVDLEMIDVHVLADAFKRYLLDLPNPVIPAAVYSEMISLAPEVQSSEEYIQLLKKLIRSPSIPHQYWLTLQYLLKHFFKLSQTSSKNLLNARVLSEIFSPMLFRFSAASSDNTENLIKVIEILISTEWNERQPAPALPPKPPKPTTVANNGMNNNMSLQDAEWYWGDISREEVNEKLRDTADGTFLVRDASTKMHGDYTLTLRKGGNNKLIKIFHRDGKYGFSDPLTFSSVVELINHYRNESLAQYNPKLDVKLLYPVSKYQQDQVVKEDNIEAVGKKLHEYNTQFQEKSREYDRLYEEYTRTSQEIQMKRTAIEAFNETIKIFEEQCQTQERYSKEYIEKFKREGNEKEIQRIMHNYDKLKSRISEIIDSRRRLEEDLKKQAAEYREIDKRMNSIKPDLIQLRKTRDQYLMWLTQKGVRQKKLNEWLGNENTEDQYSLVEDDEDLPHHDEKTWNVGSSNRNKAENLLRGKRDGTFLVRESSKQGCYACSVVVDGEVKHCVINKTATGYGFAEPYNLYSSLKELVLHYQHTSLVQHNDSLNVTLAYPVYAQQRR
Chain of PI3-kinase p110-alpha/p85-alpha (P42336 whole entry): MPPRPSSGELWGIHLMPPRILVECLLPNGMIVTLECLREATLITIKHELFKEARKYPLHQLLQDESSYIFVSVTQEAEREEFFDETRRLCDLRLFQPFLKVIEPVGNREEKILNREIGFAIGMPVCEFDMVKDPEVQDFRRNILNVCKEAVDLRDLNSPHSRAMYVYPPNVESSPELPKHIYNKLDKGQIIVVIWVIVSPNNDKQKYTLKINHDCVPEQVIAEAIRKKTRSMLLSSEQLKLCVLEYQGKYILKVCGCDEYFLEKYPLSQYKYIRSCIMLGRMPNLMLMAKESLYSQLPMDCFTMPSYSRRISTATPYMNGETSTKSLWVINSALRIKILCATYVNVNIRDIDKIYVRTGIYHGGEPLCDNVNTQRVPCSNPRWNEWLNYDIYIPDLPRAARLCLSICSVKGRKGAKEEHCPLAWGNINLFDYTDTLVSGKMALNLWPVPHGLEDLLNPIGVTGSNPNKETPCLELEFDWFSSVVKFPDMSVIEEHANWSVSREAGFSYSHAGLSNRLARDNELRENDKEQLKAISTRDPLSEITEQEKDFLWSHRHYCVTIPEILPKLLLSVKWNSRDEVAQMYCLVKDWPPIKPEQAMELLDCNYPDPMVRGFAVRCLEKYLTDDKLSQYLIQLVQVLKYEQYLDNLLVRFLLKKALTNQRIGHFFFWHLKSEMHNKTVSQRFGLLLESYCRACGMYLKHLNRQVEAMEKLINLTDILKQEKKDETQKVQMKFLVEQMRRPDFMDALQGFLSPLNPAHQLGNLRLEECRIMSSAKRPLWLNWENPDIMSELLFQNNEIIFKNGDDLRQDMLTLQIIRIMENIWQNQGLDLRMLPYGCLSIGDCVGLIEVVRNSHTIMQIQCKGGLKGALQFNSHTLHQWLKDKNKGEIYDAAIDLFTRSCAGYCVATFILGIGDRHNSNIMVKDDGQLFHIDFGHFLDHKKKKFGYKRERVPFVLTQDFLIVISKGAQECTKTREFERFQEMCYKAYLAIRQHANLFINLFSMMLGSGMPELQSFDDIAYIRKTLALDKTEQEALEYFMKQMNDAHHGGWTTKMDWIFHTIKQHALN

MCF7 = experiment: Inhibition of MCF-7 (breast) cancer cell proliferation; assay type: functional, cell-based; conditions: Homo sapiens
NIH3T3 = experiment: Inhibition of NIH3T3 cell proliferation; assay type: functional, cell-based; conditions: Mus musculus

Row | Compound | logP [1] | IC50 [2] [µM] | IC50 (HT-29) [µM] | IC50 [3] [µM] | IC50 (MCF7) [µM] | IC50 (NIH3T3) [µM]
1 | CCCCCCCCCCCCCCCCCCOC[C@H](COP(=O)(O)OC1[C@@H](O)[C@@H](O)[C@H](O)[C@H](CO)[C@H]1O)OC (single isomer, unassigned) | – | 7.8 | 4.5 | 31 | 5 | 2
2 | CCCCCCCCCCCCCCCCCCOC[C@H](COP(=O)(O)OC1[C@H](O)C[C@@H](O)[C@H](O)[C@@H]1O)OC (single isomer, unassigned) | 4.44 | – | – | 14.8 | – | 4.5
3 | CCCCCCCCCCCCCCCCCCOC[C@H](COC(=O)OC1[C@@H](O)[C@@H](O)[C@H](O)[C@H](CO)[C@H]1O)OC (single isomer, unassigned) | – | 5 | 10 | 83 | 1.25 | 2

Now from value to compound, other results behind:

Row | logP [1] | IC50 [2] [µM] | IC50 (HT-29) [µM] | IC50 [3] [µM] | IC50 (MCF7) [µM] | Compound | IC50 (NIH3T3) [µM]
4 | 3.22 | 20.5 | 6.5 | 7.9 | 2 | CCCCCCCCCCCCCCCCCCOC[C@H](COP(=O)(O)OC1[C@@H](O)[C@@H](O)[C@H](O)[C@H](CO)[C@H]1O)n1ccnc1 (single isomer, unassigned) | 8.2
5 | – | 15 | 15 | 49.5 | 20 | CCCCCCCCCCCCCCCCCCOC[C@H](COC(=O)OC1[C@@H](O)[C@@H](O)[C@H](O)[C@H](CO)[C@@H]1O)n1ccnc1 (single isomer, unassigned) | 11.5
6 | – | 37.5 | 15 | 14.5 | 6 | CCCCCCCCCCCCCCCCCCOC[C@H](COP(=O)(O)OC1[C@H](O)C[C@@H](O)[C@H](O)[C@@H]1O)n1ccnc1 (single isomer, unassigned) | 6.5
